The text below walks through data of article PMC10610379, “Epidrugs as Promising Tools to Eliminate Plasmodium falciparum Artemisinin-Resistant and Quiescent Parasites” (Pharmaceutics, 2023).

Values joined by “and” are separate entries in the source; they are usually repeats but may differ in a detail not shown here. Identical values can stand only once. Like-named read-outs stand apart in the source and are kept apart here.

Data set [1] is described as follows: Cytotoxicity evaluation by MTT assay. Type of data set: cell-based. As to conditions: monkey, Vero cells, * mean of 2 experiments. As to the method:
The cytotoxicity of all newly synthesized compounds was evaluated on the Vero cell lines (isolated from monkey kidney cells, gift from the Faculty of Pharmacy, Toulouse, France) by MTT assay according to Mosmann with slight modifications. Briefly, cells in MEM medium supplemented with 10% fetal calf serum, 2 mM L-glutamine, antibiotics (100 U/mL penicillin and 100 µg/mL streptomycin), and NEAA 1X, were seeded in 96-well plates. After a 24-h incubation at 37 °C and 5% CO2 in a humidified atmosphere, compounds were added with concentrations ranging from 5 nM to 50 μM in duplicate. […] The security index was calculated as the ratio of cytotoxicity/antiplasmodial activity.
(In general: Formazan colour is commonly taken as a measure of viable cells.)

Data set [2] has as its system Plasmodium falciparum F32-TEM (artemisinin-sensitive twin line). Nature of the data set: Standard chemosensitivity assay (SYBR Green I), F32-TEM. Type of data set: cell-based. The conditions noted are these: Plasmodium falciparum, read-out: Antiplasmodial Activity: IC50, F32-TEM. As to the method: (§1) They differ by eight mutations in seven genes (PF3D7_0110400, PF3D7_1343700, PF3D7_0213400, PF3D7_1115700, PF3D7_1302100, PF3D7_1459600, PF3D7_1464500) among them the M476I mutation on the kelch13 gene. F32-ART and F32-TEM strains have RSA^0–3 h values up to 12% and less than 0.1%, respectively. […] Both strains were cultured, in the same conditions, according to the Trager and Jensen protocol with modifications. Briefly, parasites were cultivated in RPMI-1640 medium (Biowest) at 2% hematocrit in human red blood cells and 5% human serum (EFS, French Blood Bank) under 5% CO2 in a humid atmosphere at 37 °C.
(§2) The antimalarial activities of the compounds were evaluated on both strains. […] Antimalarial activities were determined with the SYBR Green I method. Each drug concentration was tested in triplicate. The parasites were incubated with the drugs for 48 h. Plates were read on a BioTek FLX800 Microplate Fluorescence Reader (Bio-Tek instruments, Winooski, VT, USA) (λexcitation = 485 nm, λemission = 528 nm). Control parasite culture (i.e., RPMI with 0.5% DMSO) was referred to as 100% growth. IC50 and IC90 values were determined using GraphPad Prism version 7.05 (GraphPad Software, San Diego, CA, USA). Results were the mean of 3 independent experiments. When it is relevant, statistical significance between results obtained with both parasite strains was determined by a Mann–Whitney test using GraphPad Prism version 7.05.

In data set [3] the test system is Plasmodium falciparum F32-ART (artemisinin-resistant strain). Put plainly: Standard chemosensitivity assay (SYBR Green I), F32-ART. The data set is classed as cell-based. As to conditions: for IC50: Plasmodium falciparum, read-out: Antiplasmodial Activity: IC50, F32-ART; for Selectivity Index CC50/IC50: ratio cytotoxicity (mammalian cell type of the CC50)/antiplasmodial activity on F32-ART. The protocol:
as §1, §2

The test system of data set [4] is H4K8ac. Nature of the data set: Immunoblotting, histone mark abundance in F32-ART parasites. The data set is classed as cell-based, Plasmodium falciparum. As to conditions: 700nM DHA alone, F32-ART ring stage; 3 replicates (Fig 3D). As to the method: (§3) Abundance of methylated and acetylated histone was determined in parasite cultures in different conditions: “not-treated”, “DHA 24 h”, “DHA 6 h/DHA 24 h” and “DHA 6 h/DHA + compound to be tested 24 h”. At the end of the treatments, parasite cultures were washed in RPMI-1640 and then twice in PBS 1× before red blood cell lysis with 0.075% saponin (Sigma-Aldrich) in PBS. Parasite ghosts were washed 3 times in PBS before incubating the ghosts with E1A lysis buffer (50 mM Hepes pH 7.5; 250 mM NaCl; 5 mM EDTA; 0.1% Triton X-100, 1 mM DTT, 0.2 mM PMSF supplemented with complete Mini EDTA-free protease inhibitor cocktail (Roche®, Basel, Switzerland)) for 15 min. Ghosts were then sonicated for 3 × 15s ON/OFF cycles to shear parasite membranes. Debris were pelleted by centrifuging for 15 min at 13,800× g and 4 °C, and supernatants (containing parasitic proteins) were then collected. Protein concentrations were determined using BCA assay (Bio-Rad, Hercules, CA, USA) according to the manufacturer’s instructions. For each sample, 10 µg of proteins were mixed with 4× sample buffer (10 mL 50% Glycerol, 5 mL 0.5 M Tris HCl pH 6.8, 4 mL 20% SDS, 0.02% Bromophenol blue for a total solution volume of 20 mL) and 100 mM DTT and then separated on 15% SDS-PAGE gels in Laemmli running buffer. Gels were then wet-transferred O/N at 20 V onto PVDF membranes. Membranes were blocked in TBST for 1 h at room temperature. Bottom parts were then probed with histone antibodies while upper parts were probed with PFALDOLASE antibody (Abcam, ab38905, Cambridge, UK) at 1:20,000 dilution. The following primary antibodies were used: anti-H3K4me1 (Abcam, ab8895); anti-H3K4me2 (Abcam, ab35356); anti-H3K9me2 (Abcam, ab1220); anti-H3K9me3 (Millipore, 07-442, Burlington, MA, USA); anti-tetra-acetyl H4 (Millipore, 06-866); anti-H4K8Ac (Millipore, 07-328); anti-H4K20me3 (Abcam, ab9053); anti-H3K4me3 (Diagenode) and anti-H3K9Ac (Millipore, 07-352) at 1:10,000. The following secondary antibodies were used: anti-rabbit IgG-Peroxidase produced in goat (Sigma-Aldrich) or anti-mouse IgG-Peroxidase (Sigma-Aldrich); at 1:20,000 dilutions. Blots were developed using ECL Prime Western Blotting (GE Healthcare, Chicago, IL, USA) and read on a Chemidoc touch imaging software. Densitometry analysis was performed by using ImageLab software from Bio-Rad. To determine if variations in histone abundances were statistically significant, immunoblotting experiments were performed on 3 biological replicates and each run was performed twice.
For orientation: In western blotting, separated proteins are transferred to a membrane and probed.

Data set [5] deals with H3K4me1. Described as above. The data set is classed as cell-based, Plasmodium falciparum. The conditions noted are these: 700nM DHA alone, F32-ART ring stage; 3 replicates (Fig 3D). The protocol:
as §3

Data set [6] has as its system H3K4me2. The description is as above. Type of data set: cell-based, Plasmodium falciparum. The conditions noted are these: 700nM DHA alone, F32-ART ring stage; 3 replicates (Fig 3D). As to the method:
as §3

For data set [7], the system named is H4ac4. Described as above. Type of data set: cell-based, Plasmodium falciparum. As to conditions: 700nM DHA alone, F32-ART ring stage; 3 replicates (Fig 3D). The protocol:
as §3

Data set [8] concerns H4K20me3. The description is as above. The data set is classed as cell-based, Plasmodium falciparum. As to conditions: 700nM DHA alone, F32-ART ring stage; 3 replicates (Fig 3D). The protocol: as §3
In data set [9] the test system is H3K4me3. The data set is described as above. The data set is classed as cell-based, Plasmodium falciparum. As to conditions: 700nM DHA alone, F32-ART ring stage; 3 replicates (Fig 3D). The protocol: as §3
The mark [10] stands for this setting: F32-TEM, 48 h incubation, SYBR Green I, mean ± SEM of 3 experiments (* mean of 2).
Where [11] appears, read: F32-ART, 48 h incubation, SYBR Green I, mean ± SEM of 3 experiments (* mean of 2).

For `Cc1sc2c(c1C)C(c1ccc(Cl)cc1)=N[C@@H](CC(=O)OC(C)(C)C)c1nnc(C)n1-2` [(+)-JQ-1], the half-maximal cytotoxic concentration (CC50) (usually the concentration giving 50% cytotoxicity) in data set [1] is 0.2 µM. In addition, the IC50 in [2] (setting [10]) and in data set [3] (setting [11]) was more than 10 µM each time. Besides, in data set [3], the “Selectivity Index CC50/IC50” value is listed as less than 0.02.

In [1], `O=C1c2ccccc2O[C@H](c2ccccc2[N+](=O)[O-])[C@@]1(Br)[N+](=O)[O-]` (relative stereo) [MLo1507] displayed a cytotoxic concentration (CC50) of 40 µM. In addition, the concentration for half-maximal inhibition (IC50) in data set [2] (setting [10]) and in data set [3] (setting [11]) was more than 10 µM throughout. In addition, the “Selectivity Index CC50/IC50” value in data set [3] was less than 4.

Turning to `C[C@@H]1CC[C@H]2[C@@H](C)C(=O)O[C@@H]3O[C@@]4(C)CC[C@@H]1[C@]32OO4` [artemisinin, Artemisinin], the CC50 in [1] is more than 100 µM. The half-inhibitory concentration (IC50) (in general, the concentration needed to halve the response being measured) in data set [2] (setting [10]) was determined as 0.013 ± 0.003 µM.

In turn, `COc1ccc([N+](=O)[O-])c(C2Oc3ccccc3C(=O)C2(Cl)[N+](=O)[O-])c1` (centres unmarked) [Flv880] displayed a CC50 in data set [1] of more than 50 µM. In addition, the IC50 in [2] (setting [10]) and in data set [3] (setting [11]) was more than 10 µM each time.

Molecule `O=C1c2ccccc2O[C@H](c2ccccc2F)[C@@]1(Br)[N+](=O)[O-]` (relative stereo) [MLo1509] yielded a CC50 in [1] of more than 50 µM. The IC50 in data set [2] (setting [10]) and in data set [3] (setting [11]) was more than 10 µM each time.

Take `CC1=NN(C2CCC(C(=O)O)CC2)C(=O)C1=Cc1ccc(-c2cc(C)c(C)cc2[N+](=O)[O-])o1` (centres unmarked) [C646]: the IC50 in data set [2] (F32, 48 h) was more than 10 µM; in [3] (F32, 48 h), more than 10 µM.

The molecule `COc1cccc(C2Oc3ccccc3C(=O)C2(Cl)[N+](=O)[O-])c1` (centres unmarked) [NFlav2018] came in with a CC50 in [1] of more than 50 µM. Also, the IC50 in data set [2] (setting [10]) and in [3] (setting [11]) was more than 10 µM each time.

For the molecule `C[C@]1([N+](=O)[O-])C(=O)c2ccccc2O[C@@H]1c1ccccc1[N+](=O)[O-]` (relative stereo) [MLo1302], in [1], the CC50 is 6.5 µM. For the same molecule, the IC50 worked out at 8 µM in data set [2] (setting [10]) and 7 µM in [3] (setting [11]). The “Selectivity Index CC50/IC50” value in data set [3] came to 0.9.

The molecule `O=C1c2ccccc2OC(c2ccccc2)C1[N+](=O)[O-]` (centres unmarked) [MLo1406] returned a CC50 in [1] of more than 50 µM. The IC50 in [2] (setting [10]) and in [3] (setting [11]) was more than 10 µM each time.

In the case of `C[C@H]1[C@@H](O)O[C@@H]2O[C@@]3(C)CC[C@H]4[C@H](C)CC[C@@H]1[C@@]24OO3` [DHA, Dihydroartemisinin], the “Fold change of H4K8ac abundance, DHA vs DMSO” value in data set [4] is “increased level and 2.03 and 2.07 and 2.15”. Moreover, the “Fold change of H3K4me1 abundance, DHA vs DMSO” value in [5] was 1.02 and 1.53 and 1.51. The “Fold change of H3K4me2 abundance, DHA vs DMSO” value in [6] is 1.36 and 1.49 and 1.08. In addition, the “Fold change of H4ac4 abundance, DHA vs DMSO” value in [7] was “increased level and 2.04 and 2.38 and 1.70”. Moreover, the “Fold change of H4K20me3 abundance, DHA vs DMSO” value in data set [8] is “increase and 1.51 and 1.65”. Besides, the “Fold change of H3K4me3 abundance, DHA vs DMSO” value in data set [9] is 0.71 and 0.98 and 0.76.

Regarding `Cc1sc2c(c1C)C(c1ccc(Cl)cc1)=N[C@@H](CC(=O)NCC13CC4CC(CC(C4)C1)C3)c1nnc(C)n1-2` [SHH-878-1], the CC50 in data set [1] came out at 3 µM. In addition, the IC50 in data set [2] (setting [10]) and in [3] (setting [11]) was 10 µM throughout. Moreover, in [3], the “Selectivity Index CC50/IC50” value is given as 0.3.

The molecule `O=C1c2ccccc2O[C@H](c2ccccc2[N+](=O)[O-])[C@@]1(Cl)[N+](=O)[O-]` (relative stereo) [Flv69] yielded a CC50 in [1] of more than 50 µM. Also, the IC50 in data set [2] (setting [10]) and in [3] (setting [11]) was more than 10 µM throughout.

`O=C1c2ccccc2OC(c2ccccc2)C1(Br)[N+](=O)[O-]` (centres unmarked) [MLo1502] showed a CC50 in [1] of more than 50 µM. Also, the IC50 in data set [2] (setting [10]) and in [3] (setting [11]) was more than 10 µM each time.

For `Cc1noc(C)c1-c1ccc2c(c1)nc(CCc1ccc(O)cc1)n2CCN1CCOCC1` [AKE-040], half-maximal cytotoxicity in [1] (CC50) was put at 24 µM. In addition, the IC50 in [2] (setting [10]) and in [3] (setting [11]) was more than 10 µM in each case. In addition, in data set [3], the “Selectivity Index CC50/IC50” value is given as less than 2.4.

The molecule `O=C1c2ccccc2O[C@H](c2ccccc2)[C@]1(F)[N+](=O)[O-]` (relative stereo) [MLo1401] showed a CC50 in data set [1] of 20 µM. Moreover, the IC50 in data set [2] (setting [10]) and in data set [3] (setting [11]) was more than 10 µM each time. For the same molecule, the “Selectivity Index CC50/IC50” value in data set [3] was less than 2.

Turning to `COc1ccc([N+](=O)[O-])c(C2Oc3ccccc3C(=O)C2(Br)[N+](=O)[O-])c1` (centres unmarked) [MLo1508], the midpoint of cytotoxicity in data set [1], the CC50, lay at 36 µM. Moreover, the IC50 in data set [2] (setting [10]) and in data set [3] (setting [11]) was more than 10 µM in each case. Besides, the “Selectivity Index CC50/IC50” value in data set [3] is recorded as less than 3.6.
